{
  "source": "paper PMC6153204",
  "about": "(2018)",
  "key": {"[1]": {"test_system": "B09 (DNA, aptamer) GCTAGACGATATTCGTCCATCTCCCGTGCATGCGAGACCGTGAGTTGGACTGACCCGCTTCCGCTGTCAGACTGAATATGTC", "assay": "plate saturation binding, absorbance at 450 nm, nonlinear regression", "conditions": "varied aptamer, fixed rongalite; immobilised compound (implied by plate assay); buffer not stated"}, "[2]": {"test_system": "A09 (DNA, aptamer) GACATATTCAGTCTGACAGCGGAAGCGGGTCAGTCCAACTCACGGTCTCGCATGCACGGGAGATGGACGAATATCGTCTAGC", "assay": "plate saturation binding, absorbance at 450 nm, nonlinear regression", "conditions": "varied aptamer, fixed rongalite; immobilised compound (implied by plate assay); buffer not stated"}},
  "data": [
    {"compound": "O=S(O)CO", "values": [
      {"measurement": "Kd", "setting": "[1]", "result": "39.81 ± 12.73", "unit": "nM"},
      {"measurement": "Kd", "setting": "[2]", "result": "61.12 ± 16.36", "unit": "nM"}
    ]}
  ]
}
